Experimental data published in patent US9115061B2, “Naphthalene-based inhibitors of anti-apoptotic proteins” (BURNHAM INSTITUTE FOR MEDICAL RESEARCH, priority 2007, dated 2015).

How the values were obtained:
BCL-XL = BCL-XL (Homo sapiens (Human), UniProt Q07817); test: Fluorescence polarization assay with fluorescein-labeled Bad peptide; assay type: binding; details: Table 5
Protocol: FP A assays were conducted with a fluorescein-labeled Bad peptide (NL […] Corporation, Dublin, Calif.) using a LJL Analyst HT Molecular Devices Co., Sunnyvale, Calif.). […] The tubes were incubated for 5 minutes at room temperature and 20 μl each of reaction mixture was transferred to 96-well black PS, HE Microplate (LJL Biosystems Co). All assays were performed in quadruplicate, with blank wells receiving no Gossypol. […] Controls included dose-responses measurements in absence of the proteins, to assess any interactions between the compounds and the FITC-BH3 peptide. Eventual effects were taken into account by subtraction.

ZR75-1 cells = test: XTT dye reduction assay; assay type: cell-based, human; details: three days
Protocol: (§1) The effects of the compounds on viability of tumor cells in culture were monitored by using XTT assays with MCF7 and ZR75-1 cell lines. MCF7 cells were grown in DMEM containing 10% fetal bovine serum, penicillin/streptomycin, supplemented with 10^−10 M insulin, 1 mM sodium pyruvate and glutamine. ZR75-1 cells were grown in RPMI containing 10% fetal bovine serum, penicillin/streptomycin, supplemented with HEPES buffer, 1 mM sodium pyruvate and glutamine. Cells were regularly tested for mycoplasma contamination. Cells were seeded triplicates at an initial cell density of 1,000 cells per well. Blank wells received no cells.
(§2) Relative numbers of viable cells was determined by XTT assay. Briefly, in a 96-well plate, we added 50 μl of a mixture of 1 mg/ml of XTT (2,3-bis(2-methoxy-4-nitro-5-sulfophenyl)-5-[(phenylamino)carbonyl]-2H-tetrazolium hydroxide) (Polysciences, Washington, Pa.) containing 0.025 mM PMS (phenazine methosulfate) to each well. The 96-well plates were reincubated for an additional 4 hours to allow for XTT formazan production. Then, the contents of each plate were mixed and optical densities were determined at a wavelength of 450 nm (OD450). Net OD450 was determined after subtracting OD450 of blank wells. Low-passage HeLa cells (between passage number 10 and 20) were transfected with pcDNA3-BCL-XL or control pcDNA3 plasmids using Lipofectamine Plus reagent (Invitrogen) and selected in medium containing 800 μg/ml of G418. Immunoblot analysis of BCL-XL was accomplished as previously described.

MCF7 cells = test: XTT dye reduction assay; assay type: cell-based, human; details: three days
Protocol: as §1, §2

Chain of BCL-XL (Q07817 whole entry): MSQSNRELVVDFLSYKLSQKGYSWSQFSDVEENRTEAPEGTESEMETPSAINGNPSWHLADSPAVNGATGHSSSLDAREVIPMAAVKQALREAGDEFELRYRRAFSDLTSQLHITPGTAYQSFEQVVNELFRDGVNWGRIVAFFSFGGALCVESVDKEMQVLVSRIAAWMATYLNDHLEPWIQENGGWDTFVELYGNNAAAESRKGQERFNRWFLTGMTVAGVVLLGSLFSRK

- IC50 (BCL-XL): 2200 nM
- IC50, cell viability MCF7 (MCF7 cells): did not show appreciable activity
Compound: O=c1c(O)cccc2cc(O)c(O)c(O)c12 [Purpurogallin]
- IC50, cell viability ZR75-1 (ZR75-1 cells): did not show appreciable activity
